From BindingDB's records for doi:10.1002/cbic.200800712 (University of Basel, 2009) come the findings set out here.

One assay concerns the target T1, Cytochrome P450 2A6 (Homo sapiens, UniProt P11509).
T1 sequence (P11509 whole entry): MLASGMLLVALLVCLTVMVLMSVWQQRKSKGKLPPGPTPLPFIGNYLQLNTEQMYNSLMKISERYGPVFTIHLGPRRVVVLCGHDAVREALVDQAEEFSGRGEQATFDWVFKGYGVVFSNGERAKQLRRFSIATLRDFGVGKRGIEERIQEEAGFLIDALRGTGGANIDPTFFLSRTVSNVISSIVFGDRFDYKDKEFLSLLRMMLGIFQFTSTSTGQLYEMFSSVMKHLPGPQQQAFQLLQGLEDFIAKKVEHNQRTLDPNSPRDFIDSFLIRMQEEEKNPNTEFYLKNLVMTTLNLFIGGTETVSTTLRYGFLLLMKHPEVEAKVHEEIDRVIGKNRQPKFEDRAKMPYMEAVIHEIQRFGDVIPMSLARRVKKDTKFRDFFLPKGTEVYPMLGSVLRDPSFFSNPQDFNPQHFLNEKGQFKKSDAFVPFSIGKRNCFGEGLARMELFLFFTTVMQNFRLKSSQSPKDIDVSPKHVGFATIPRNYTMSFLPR
The experiment in a line: Inhibition Assay. Conditions: pH 7.6; 37 °C. The source says: (§1) Inhibition assay using cytochrome P450 enzyme CYP2A6 and CYP2A13.

A further assay concerns the target T2, Cytochrome P450 2A13 (Homo sapiens, UniProt Q16696).
T2 sequence (Q16696 whole entry): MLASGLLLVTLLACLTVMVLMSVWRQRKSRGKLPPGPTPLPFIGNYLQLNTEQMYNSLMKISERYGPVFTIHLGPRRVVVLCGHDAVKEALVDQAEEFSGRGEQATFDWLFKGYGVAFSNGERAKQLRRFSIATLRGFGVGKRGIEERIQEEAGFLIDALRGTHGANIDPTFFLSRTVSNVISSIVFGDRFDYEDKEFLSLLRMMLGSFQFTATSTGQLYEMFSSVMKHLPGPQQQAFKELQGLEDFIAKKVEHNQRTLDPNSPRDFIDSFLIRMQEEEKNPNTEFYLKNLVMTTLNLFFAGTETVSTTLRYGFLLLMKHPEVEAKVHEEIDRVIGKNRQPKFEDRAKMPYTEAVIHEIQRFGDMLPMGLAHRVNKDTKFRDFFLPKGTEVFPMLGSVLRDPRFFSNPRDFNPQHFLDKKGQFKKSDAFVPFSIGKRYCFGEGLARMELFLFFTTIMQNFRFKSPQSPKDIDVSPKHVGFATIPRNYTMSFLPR
The experiment in a line: Inhibition Assay. Conditions: pH 7.6; 37 °C.
Excerpt: as §1

pIC50: −log10 of the molar value. Values joined by “and” are separate entries in the source; they are usually repeats but may differ in a detail not shown here. Identical values can stand only once.

The pIC50 is the negative decadic logarithm of the IC50, by convention in mol/L. A low value points to a large IC50. Turning to `C=Cn1ccnc1` [1-ethenyl-1H-imidazole], the negative logarithm of the IC50 (pIC50) against Cytochrome P450 2A6 and at Cytochrome P450 2A13 was less than 3.52 in each case. Consider `C=CCCCCn1ccnc1` [1-Subsituted 1H-imidazole, 13], for which the pIC50 on Cytochrome P450 2A6 is 5.85; at Cytochrome P450 2A13, 5.62.

The molecule `CC(C)=CCn1ccnc1` [1-Subsituted 1H-imidazole, 9] gave a pIC50 on Cytochrome P450 2A6 of 5.11. Take `O=C(O)CCCCn1ccnc1`: the results for the pIC50 at Cytochrome P450 2A6 and at Cytochrome P450 2A13 were 3.75 and 4.09, respectively. Taken in the same sequence, the figures for `COc1ccc(C2=NCCO2)cc1` [2-Subsituted oxazoline, 31] were less than 3.52 and less than 3.52. As to `CC/C=C/CCn1ccnc1` [1-Subsituted 1H-imidazole, 12], the pIC50 at Cytochrome P450 2A6 is 5.15 and 4.94; against Cytochrome P450 2A13, 5.26. For the molecule `OCCCCCn1ccnc1` [1-Subsituted 1H-imidazole, 20], the pIC50 against Cytochrome P450 2A6 is 3.91; at Cytochrome P450 2A13, less than 3.52. `CCOC(=O)CCn1ccnc1` [1-Subsituted 1H-imidazole, 17]: the results for the negative-log IC50 (pIC50) at Cytochrome P450 2A6 and against Cytochrome P450 2A13 were less than 3.52 and 3.62, respectively. On the same counts, the results for `CCCCCCCCCc1ncc[nH]1` [2-Subsituted 1H-imidazole, 27] are less than 3.52 and 3.56. Taken in the same sequence, the figures for `CCCCCn1ccnc1` [1-Subsituted 1H-imidazole, 3] were 5.68 and 5.37. Taken in the same sequence, the figures for `CCCCn1ccnc1` [1-Subsituted 1H-imidazole, 2] were 5.07 and 4.36. For `CC(C)=CCC/C(C)=C\Cn1ccnc1` [1-Subsituted 1H-imidazole, 14], the negative logarithm of the IC50 (pIC50) at Cytochrome P450 2A6 and against Cytochrome P450 2A13 was 5.24 each time. At Cytochrome P450 2A6, `CC(C)CCn1ccnc1` [1-Subsituted 1H-imidazole, 7] had a pIC50 of 5.51. On to `CCCCCCCCCc1ncco1` [2-Subsituted oxazole, 30], for which the negative logarithm of the IC50 (pIC50) against Cytochrome P450 2A6 and on Cytochrome P450 2A13 was less than 3.52 throughout.

`CC/C=C/Cn1ccnc1` [1-Subsituted 1H-imidazole, 10]: the pIC50 at Cytochrome P450 2A6 is 5.17; on Cytochrome P450 2A13, 4.94. On the same counts, the results for `CC#CCn1ccnc1` [1-Subsituted 1H-imidazole, 15] are 4.19 and 3.63.

With `c1cn(CC2CC2)cn1`, the figures for the negative logarithm of the IC50 (pIC50) at Cytochrome P450 2A6 and against Cytochrome P450 2A13 were 4.27 and 3.83, respectively. On the same counts, the results for `OCCCCn1ccnc1` [1-Subsituted 1H-imidazole, 19] are less than 3.52 and less than 3.52. For `N#CCCCCn1ccnc1` [1-Subsituted 1H-imidazole, 22], the pIC50 was 4.65 against Cytochrome P450 2A6 and 4.72 on Cytochrome P450 2A13. On the same counts, the results for `CCCn1ccnc1` [1-Subsituted 1H-imidazole, 1] are less than 3.52 and less than 3.52.

Turning to `CCCCCCn1ccnc1` [1-Subsituted 1H-imidazole, 4], the negative-log IC50 (pIC50) against Cytochrome P450 2A6 is 5.57.

As for `CC/C=C/Cc1ncc[nH]1` [2-Subsituted 1H-imidazole, 28], the negative-log IC50 (pIC50) on Cytochrome P450 2A6 is less than 3.52; on Cytochrome P450 2A13 it was 3.84. Taken in the same sequence, the figures for `COc1ccc(-c2ncco2)cc1` [2-Subsituted oxazole, 29] were 3.52 and 4.31. On the same counts, the results for `CC(C)=CCCC(C)Cc1ncc[nH]1` (centres undefined) [2-Subsituted 1H-imidazole, 26] are less than 3.52 and 3.61.

Regarding `CCOC(=O)CCCn1ccnc1` [1-Subsituted 1H-imidazole, 18], the pIC50 against Cytochrome P450 2A6 is less than 3.52; against Cytochrome P450 2A13, 3.91. Consider `CCCCCCCn1ccnc1` [1-Subsituted 1H-imidazole, 5], for which the values for the negative logarithm of the IC50 (pIC50) against Cytochrome P450 2A6 and on Cytochrome P450 2A13 were 4.96 and 5.51, respectively.
